The source of these data is ChEMBL document CHEMBL1140672, “Design, synthesis, and evaluation of isoindolinone-hydroxamic acid derivatives as histone deacetylase (HDAC) inhibitors” (Bioorg Med Chem Lett, 2007).

In one assay the target is Histone deacetylase 4 (Homo sapiens, UniProt P56524). Nature of the assay: Inhibition of human HDAC4.
The next assay addresses Histone deacetylase 1 (Homo sapiens, UniProt Q13547). Nature of the assay: Inhibition of human HDAC1.
In assay [1] the target is T1, Protein deacetylase HDAC6 (Homo sapiens, UniProt Q9UBN7).
T1 sequence (Q9UBN7 whole entry): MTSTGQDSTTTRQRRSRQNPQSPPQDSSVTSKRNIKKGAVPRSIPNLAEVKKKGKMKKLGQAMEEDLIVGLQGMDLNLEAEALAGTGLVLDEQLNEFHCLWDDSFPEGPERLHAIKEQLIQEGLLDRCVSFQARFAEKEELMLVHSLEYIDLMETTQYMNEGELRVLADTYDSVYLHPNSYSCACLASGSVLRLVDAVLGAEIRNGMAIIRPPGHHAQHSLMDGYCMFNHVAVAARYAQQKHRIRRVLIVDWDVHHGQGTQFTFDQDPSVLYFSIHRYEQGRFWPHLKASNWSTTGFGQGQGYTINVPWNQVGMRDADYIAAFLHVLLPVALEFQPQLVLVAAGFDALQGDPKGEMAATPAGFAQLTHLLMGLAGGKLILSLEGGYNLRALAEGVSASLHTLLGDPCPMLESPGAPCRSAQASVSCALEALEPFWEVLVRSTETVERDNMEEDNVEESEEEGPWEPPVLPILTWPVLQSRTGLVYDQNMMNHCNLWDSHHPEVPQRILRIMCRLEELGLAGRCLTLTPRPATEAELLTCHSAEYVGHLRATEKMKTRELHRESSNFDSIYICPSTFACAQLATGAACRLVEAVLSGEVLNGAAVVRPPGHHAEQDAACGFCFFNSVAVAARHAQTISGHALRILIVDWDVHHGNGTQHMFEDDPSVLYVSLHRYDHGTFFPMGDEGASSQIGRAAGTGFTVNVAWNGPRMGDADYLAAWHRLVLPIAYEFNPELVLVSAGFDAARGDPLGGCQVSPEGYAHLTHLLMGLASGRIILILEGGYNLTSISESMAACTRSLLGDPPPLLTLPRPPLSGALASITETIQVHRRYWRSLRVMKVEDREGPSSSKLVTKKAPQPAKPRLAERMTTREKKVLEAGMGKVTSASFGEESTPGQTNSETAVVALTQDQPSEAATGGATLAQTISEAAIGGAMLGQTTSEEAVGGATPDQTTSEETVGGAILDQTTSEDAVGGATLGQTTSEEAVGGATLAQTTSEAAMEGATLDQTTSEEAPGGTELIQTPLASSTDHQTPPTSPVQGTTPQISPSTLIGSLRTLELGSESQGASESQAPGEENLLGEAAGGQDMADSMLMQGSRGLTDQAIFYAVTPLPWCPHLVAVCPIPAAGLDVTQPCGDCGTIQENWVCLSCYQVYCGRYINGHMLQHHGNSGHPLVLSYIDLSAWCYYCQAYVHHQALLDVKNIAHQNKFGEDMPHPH
Nature of the assay: Inhibition of human HDAC6.

The test system of the next assay is PT-45. Nature of the assay: Antiproliferative activity against human drug-resistant PT45 cells. In kind it is functional, cell-based.
The subject of assay [2] is PANC-1. Nature of the assay: Antiproliferative activity against human PANC1 cells. It counts as functional, cell-based.
In assay [3] the test system is PANC-1. Nature of the assay: Increase in p21WAF1/CIP1 gene expression in PANC1 cells at 0.1 uM after 48 hrs relative to control. It counts as functional, cell-based. The following applies: Homo sapiens.
In assay [4] the test system is PANC-1. Nature of the assay: Increase in p27kip1 gene expression in PANC1 cells after 24 hrs relative to control. In kind it is functional, cell-based. To be noted: Homo sapiens.
In assay [5] the test system is PANC-1. Nature of the assay: Increase in p27kip1 gene expression in PANC1 cells after 48 hrs relative to control. In kind it is functional, cell-based. To be noted: Homo sapiens.
Assay [6] relates to PANC-1. Nature of the assay: Increase in p21WAF1/CIP1 gene expression in PANC1 cells 1 uM after 48 hrs relative to control. It counts as functional, cell-based. The following applies: Homo sapiens.
The subject of assay [7] is PANC-1. Nature of the assay: Increase in p21WAF1/CIP1 gene expression in PANC1 cells after 24 hrs relative to control. The following applies: Homo sapiens. It counts as functional, cell-based.

Active and inactive are the calls of the source. The calls are words filed in the database; no cut-off is given here.

Chain of Histone deacetylase 4 (P56524 whole entry): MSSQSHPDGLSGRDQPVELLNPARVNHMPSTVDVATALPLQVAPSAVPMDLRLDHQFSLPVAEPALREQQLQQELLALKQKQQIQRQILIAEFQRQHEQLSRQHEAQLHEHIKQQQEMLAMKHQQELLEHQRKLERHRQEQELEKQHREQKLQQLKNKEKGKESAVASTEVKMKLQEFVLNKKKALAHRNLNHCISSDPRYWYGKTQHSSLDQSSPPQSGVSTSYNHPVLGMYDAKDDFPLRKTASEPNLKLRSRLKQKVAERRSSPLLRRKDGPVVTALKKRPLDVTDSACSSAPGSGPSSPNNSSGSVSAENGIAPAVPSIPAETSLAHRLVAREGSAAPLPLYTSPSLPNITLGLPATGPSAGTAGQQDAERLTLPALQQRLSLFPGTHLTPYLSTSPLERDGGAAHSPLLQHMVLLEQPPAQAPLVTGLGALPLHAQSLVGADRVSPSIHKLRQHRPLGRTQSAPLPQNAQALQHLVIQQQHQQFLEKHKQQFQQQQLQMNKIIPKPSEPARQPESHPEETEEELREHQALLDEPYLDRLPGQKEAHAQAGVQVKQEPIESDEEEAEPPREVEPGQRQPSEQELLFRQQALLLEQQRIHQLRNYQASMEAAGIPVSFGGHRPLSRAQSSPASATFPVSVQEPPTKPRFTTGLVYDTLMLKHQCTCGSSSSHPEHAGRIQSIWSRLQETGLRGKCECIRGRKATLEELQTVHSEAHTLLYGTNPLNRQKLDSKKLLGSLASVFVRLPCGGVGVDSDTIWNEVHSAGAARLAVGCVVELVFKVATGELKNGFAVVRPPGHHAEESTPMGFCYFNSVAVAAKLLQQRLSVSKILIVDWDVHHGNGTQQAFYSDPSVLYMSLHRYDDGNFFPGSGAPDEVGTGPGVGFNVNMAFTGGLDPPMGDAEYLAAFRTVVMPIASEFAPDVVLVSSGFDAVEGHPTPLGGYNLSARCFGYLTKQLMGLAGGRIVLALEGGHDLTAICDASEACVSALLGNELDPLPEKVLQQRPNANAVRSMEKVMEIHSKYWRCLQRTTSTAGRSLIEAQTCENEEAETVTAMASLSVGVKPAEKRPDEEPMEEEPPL
Chain of Histone deacetylase 1 (Q13547 whole entry): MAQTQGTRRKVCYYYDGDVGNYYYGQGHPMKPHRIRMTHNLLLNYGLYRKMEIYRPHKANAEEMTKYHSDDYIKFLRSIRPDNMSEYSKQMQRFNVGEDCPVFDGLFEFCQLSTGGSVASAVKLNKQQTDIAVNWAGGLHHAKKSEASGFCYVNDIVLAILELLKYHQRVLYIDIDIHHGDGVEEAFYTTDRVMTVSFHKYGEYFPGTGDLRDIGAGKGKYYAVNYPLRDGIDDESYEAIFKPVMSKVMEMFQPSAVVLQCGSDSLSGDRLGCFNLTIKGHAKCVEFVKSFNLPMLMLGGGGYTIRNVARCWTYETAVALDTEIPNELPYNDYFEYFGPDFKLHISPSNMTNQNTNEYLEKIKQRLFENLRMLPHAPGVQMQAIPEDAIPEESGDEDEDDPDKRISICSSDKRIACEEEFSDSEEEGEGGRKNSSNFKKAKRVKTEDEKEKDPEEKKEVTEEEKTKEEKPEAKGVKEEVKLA

For orientation: IC50 means the concentration at which inhibition is half-maximal. `O=C(/C=C/c1ccc2c(c1)C(=O)N(Cc1ccc(-c3ccncc3)cc1)C2)NO`: the IC50 against Histone deacetylase 4 amounted to 2100 nM; on Histone deacetylase 1, 3300 nM; in assay [1] it was 15000 nM.
As to `O=C(/C=C/c1ccc2c(c1)C(=O)N(Cc1ccc(-c3ccccc3)cc1)C2)NO`, the IC50 against Histone deacetylase 4 was 98 nM; in the assay on PT-45 it was 300 nM; with PANC-1 [2] it was 150 nM; at Histone deacetylase 1, 220 nM; in assay [1] it was 750 nM.
Take `O=C(/C=C/c1ccc2c(c1)C(=O)N(Cc1ccc(-c3cccnc3)cc1)C2)NO`: the concentration for half-maximal inhibition (IC50) against Histone deacetylase 4 amounted to 56 nM; in the assay with PT-45 it was 200 nM; in the assay with PANC-1 [2], 35 nM; on Histone deacetylase 1, 92 nM; in [1], 280 nM. Moreover, the outcome in the assay with PANC-1 [3] and in the assay with PANC-1 [6] was Active. The outcome in the assay on PANC-1 [4] and with PANC-1 [5] was inactive.
For the compound `O=C(CCCCCCC(=O)Nc1ccccc1)NO`, the result in the assay with PANC-1 [3] and with PANC-1 [7] was Active. Besides, the result in the assay on PANC-1 [4] and in the assay on PANC-1 [5] was inactive.
Take `O=C(/C=C/c1ccc2c(c1)C(=O)N(Cc1ccccc1)C2)NO`: the IC50 on Histone deacetylase 4 was determined as 220 nM; on Histone deacetylase 1, 250 nM; in [1], 230 nM.
The matching figures for `CC(C)(C)c1ccc(CN2Cc3ccc(/C=C/C(=O)NO)cc3C2=O)cc1`: 180 nM, 230 nM and 990 nM.
